Experimental data reported in patent publication US8293729B2 (Boehringer Ingelheim International GmbH, priority 2009, dated 2012).

target: T1, human GPR119 receptor (Homo sapiens, UniProt Q8TDV5, S329A/T327A); test: cAMP assay (LANCE cAMP-384) in HEK293 cells stably expressing mutant human GPR119 receptor; format: cell-based; details: the 43rd table, compounds 75-1 to 75-38; read-out: EC50
T1 construct: N-terminal leader […]; expressed in transfected cells
T1 sequence (Q8TDV5 with tags, fused parts or gaps T327A/S329A): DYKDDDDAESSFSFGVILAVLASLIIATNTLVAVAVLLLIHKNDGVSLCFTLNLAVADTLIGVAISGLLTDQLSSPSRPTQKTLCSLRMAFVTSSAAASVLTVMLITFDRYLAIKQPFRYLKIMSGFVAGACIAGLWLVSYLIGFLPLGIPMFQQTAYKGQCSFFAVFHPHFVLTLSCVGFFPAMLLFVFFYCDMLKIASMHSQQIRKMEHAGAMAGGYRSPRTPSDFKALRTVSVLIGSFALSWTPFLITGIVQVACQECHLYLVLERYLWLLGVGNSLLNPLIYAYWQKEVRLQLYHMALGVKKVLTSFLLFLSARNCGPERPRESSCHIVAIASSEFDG
Outline: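 Agonist EC50 came from nonlinear regression over 12 concentrations (30 μM–100 pM), with % stimulation at 10 μM where no EC50 was obtained. Cells: stable HEK293 with mutant human GPR119 (T327A/S329A), 20 min compound at 37° C; cAMP read by LANCE kit with standard curve.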

How did the EC50 turn out when `CC(C)OC(=O)N1CCC(ON=C2CCN(c3cc(F)c(CC(=O)NC4CCCNC4)cc3F)CC2)CC1` (centres unmarked) [Example 75-16] was run?
Its EC50 is 122 nM.

`CC(C)OC(=O)N1CCC(ON=C2CCN(c3cc(F)c(CC(=O)NC4CCNC4)cc3F)CC2)CC1` (centres unmarked) [Example 75-17] was tested. Which EC50 did it give?
Its EC50 is 152 nM.

With `CC(C)OC(=O)N1CCC(ON=C2CCN(c3cc(F)c(CC(=O)NC4CCNCC4)cc3F)CC2)CC1` [Example 75-18] as the molecule, how does the EC50 read?
Its EC50 is 98 nM.

How did the EC50 turn out when `CC(C)OC(=O)N1CCC(ON=C2CCN(c3cc(F)c(CC(=O)N4CC[C@@H](N)C4)cc3F)CC2)CC1` [Example 75-19] was run?
The EC50 was 78 nM.

How did the EC50 turn out when `CC(C)OC(=O)N1CCC(ON=C2CCN(c3cc(F)c(CC(=O)N4CC[C@H](N)C4)cc3F)CC2)CC1` [Example 75-20] was run?
The EC50 was 45 nM.

`CNC1CCN(C(=O)Cc2cc(F)c(N3CCC(=NOC4CCN(C(=O)OC(C)C)CC4)CC3)cc2F)CC1` [Example 75-21] was tested. Which EC50 did it give?
The EC50 was 126 nM.

With `CC(C)OC(=O)N1CCC(ON=C2CCN(c3cc(F)c(CC(=O)N4CCCC(CN)C4)cc3F)CC2)CC1` (centres unmarked) [Example 75-22] as the molecule, how does the EC50 read?
The EC50 was 108 nM.

Which EC50 does the source give for `CC(C)OC(=O)N1CCC(ON=C2CCN(c3cc(F)c(CC(=O)NCC4CCCNC4)cc3F)CC2)CC1` (centres unmarked) [Example 75-23] here?
The EC50 was 380 nM.

Which EC50 does the source give for `CC(C)OC(=O)N1CCC(ON=C2CCN(c3cc(F)c(CC(=O)NCCN)cc3F)CC2)CC1` [Example 75-24] here?
Its EC50 is 410 nM.

Which EC50 does the source give for `CC(C)OC(=O)N1CCC(ON=C2CCN(c3cc(F)c(CC(=O)N4CCNCC4)cc3F)CC2)CC1` [Example 75-25] here?
Its EC50 is 92 nM.

`CC(C)OC(=O)N1CCC(ON=C2CCN(c3cc(F)c(CC(=O)NCC4CCNCC4)cc3F)CC2)CC1` [Example 75-26] was tested. Which EC50 did it give?
The EC50 was 236 nM.

`CC(C)OC(=O)N1CCC(ON=C2CCN(c3cc(F)c(CC(=O)NCC4CCNC4)cc3F)CC2)CC1` (centres unmarked) [Example 75-27] was tested. Which EC50 did it give?
The EC50 was 797 nM.

For `CC(C)OC(=O)N1CCC(ON=C2CCN(c3cc(F)c(CC(=O)N4CCC[C@@H]4CN4CCCC4)cc3F)CC2)CC1` [Example 75-28], which EC50 is on record?
Its EC50 is 246 nM.

Which EC50 does the source give for `CC(C)OC(=O)N1CCC(ON=C2CCN(c3cc(F)c(CC(=O)N4CCC[C@H]4CN4CCCC4)cc3F)CC2)CC1` [Example 75-29] here?
The EC50 was 2910 nM.

Which EC50 does the source give for `CC(C)OC(=O)N1CCC(ON=C2CCN(c3cc(F)c(CC(=O)N4CCCCC4CN4CCCC4)cc3F)CC2)CC1` (centres unmarked) [Example 75-30] here?
The EC50 was 333 nM.

Which EC50 does the source give for `CC(C)OC(=O)N1CCC(ON=C2CCN(c3cc(F)c(CC(=O)N4CCCCC4CN4CCOCC4)cc3F)CC2)CC1` (centres unmarked) [Example 75-31] here?
The EC50 was 192 nM.

`CC(C)OC(=O)N1CCC(ON=C2CCN(c3cc(F)c(CC(=O)N4CCCCC4CN4CCCCC4)cc3F)CC2)CC1` (centres unmarked) [Example 75-32] was tested. Which EC50 did it give?
Its EC50 is 300 nM.

With `CC(C)OC(=O)N1CCC(ON=C2CCN(c3cc(F)c(CC(=O)NCC4CCN(C)C4)cc3F)CC2)CC1` (centres unmarked) [Example 75-33] as the molecule, how does the EC50 read?
The EC50 was 128 nM.

Which EC50 does the source give for `CC(C)OC(=O)N1CCC(ON=C2CCN(c3cc(F)c(CC(=O)N4CCC(CN5CCCC5)CC4)cc3F)CC2)CC1` [Example 75-34] here?
Its EC50 is 146 nM.

`CC(C)OC(=O)N1CCC(ON=C2CCN(c3cc(F)c(CC(=O)N4CCC(CN5CCCCC5)C4)cc3F)CC2)CC1` (centres unmarked) [Example 75-35] was tested. Which EC50 did it give?
Its EC50 is 171 nM.

How did the EC50 turn out when `CC(C)OC(=O)N1CCC(ON=C2CCN(c3cc(F)c(CC(=O)N4CCCCC4CN(C)C)cc3F)CC2)CC1` (centres unmarked) [Example 75-36] was run?
The EC50 was 322 nM.

Which EC50 does the source give for `CC(C)OC(=O)N1CCC(ON=C2CCN(c3cc(F)c(CC(=O)N4CCCC(CN(C)C)C4)cc3F)CC2)CC1` (centres unmarked) [Example 75-37] here?
Its EC50 is 155 nM.

`CC(C)OC(=O)N1CCC(ON=C2CCN(c3cc(F)c(CC(=O)N4CCC(CN(C)C)CC4)cc3F)CC2)CC1` [Example 75-38] was tested. Which EC50 did it give?
The EC50 was 92 nM.

same assay, conditions: the 44th table, compounds 77-1 to 77-14; read-out: EC50

How did the EC50 turn out when `CCc1cnc(N2CCC(ON=C3CCN(c4cc(F)c(CC(=O)NC5CCN(C)CC5)cc4F)CC3)CC2)nc1` [Example 77-1, 2-(4-{4-[1-(5-ethyl-pyrimidin-2-yl)-piperidin-4-yloxyimino]-piperidin-1-yl}-2,5-difluoro-phenyl)-N-(1-methyl-piperidin-4-yl)-acetamide] was run?
Its EC50 is 76 nM.

Which EC50 does the source give for `CCc1cnc(N2CCC(ON=C3CCN(c4cc(F)c(CC(=O)N5CCC(N)CC5)cc4F)CC3)CC2)nc1` [Example 77-2] here?
Its EC50 is 22 nM.

For `CCc1cnc(N2CCC(ON=C3CCN(c4cc(F)c(CC(=O)N(C)C)cc4F)CC3)CC2)nc1` [Example 77-3], which EC50 is on record?
Its EC50 is 18 nM.
